# Legend:
# Type in all cases: physicochemical
# [1] = Wear life (T 1/2) of polymer plate in xenon fade meter, JIS L0843 and JIS B7754; conditions: time until color density decreases to one-half the initial value
# Excerpt: (§1) 0.04 Parts of fulgimide compounds shown in Table 3, 70 parts of tetraethyleneglycol dimethacrylate, 15 parts of triethyleneglycol dimethacrylate, 10 parts of glycidyl methacrylate, 5 parts of 2-hydroethylmethacrylate and 1 part of perbutyl ND as a polymerization catalyst, were sufficiently mixed together until they were completely dissolved. The mixture solution was poured into a mold constituted by a glass plate and a gasket of an ethylene/vinyl acetate copolymer, and its temperature was elevated in an air oven from 35° C. to 90° C. over a period of 20 hours to effect the polymerization. After the polymerization, the polymer was taken out from the glass mold.
# (§2) The obtained polymer plate was irradiated with xenon light by using a Xenon Long-Life Fade Meter FAL-25AX-HC (output: 2.5 KW, source of light: xenon long-life arc lamp) manufactured by Suga Shikenki Co., in order to measure a maximum absorption wavelength in a state of developing color. The initial color tone was observed by eyes, and YI of the samples was measured by using a color-difference meter (Model SM-4) manufactured by Suga Shikenki Co. The wear life (T 1/2) was also measured in compliance with JIS L0843 and JIS B7754. T 1/2 is defined to be the time until the color density decreases down to one-half the initial value when the polymer plate is irradiated with light by using the fade meter.
# (§3) For the purpose of comparison, the fulgimide compounds represented by the following formulas (A) to (I) were also used to prepare polymer plates to measure their properties in the same procedure as described above. [drawing 113]
# [2] = Developed color of polymer plate under xenon light (color density, maximum absorption wavelength); conditions: for Color density: 0.04 parts in polymer plate; for λ max: state of developing color, polymer plate
# Excerpt: as §1, §2, §3
# [3] = Initial color of polymer plate (visual observation, YI by color-difference meter); conditions: for Initial color, visually observed: before irradiation; for Initial color, YI: color-difference meter SM-4
# Excerpt: as §1, §2, §3
T1/2 [1] [h],Color density [2],λ max [2] [nm],"Initial color, visually observed [3]","Initial color, YI [3]",SMILES
100,0.68,568,pale yellow,4.68,CCC1=C2C(=O)N(S(=O)(=O)O)C(=O)C2C2(c3c(OC)cc(OC)cc31)C1CC3CC(C1)CC2C3 (stereo not shown) [Compound 27]
80,0.78,620,yellow,19.52,"CCOC(=O)CN1C(=O)C2=C(C)c3cc(-c4ccc(OC)cc4)n(C)c3C3(C4CC5CC(C4)CC3C5)C2C1=O (stereo not shown) [H, reference compound]"
100,0.58,550,colorless,2.16,CC1=C2C(=O)N(C(=O)c3ccccc3)C(=O)C2C2(c3occc31)C1CC3CC(C1)CC2C3 (stereo not shown) [Compound 33]
90,0.82,570,yellow,10.75,"CC1=C2C(=O)N(CC#N)C(=O)C2C2(c3sc(-c4ccccc4)cc31)C1CC3CC(C1)CC2C3 (stereo not shown) [D, reference compound]"
385,0.98,600,colorless,2.01,N#CN1C(=O)C2=C(C3CC3)c3ccoc3C3(C4CC5CC(C4)CC3C5)C2C1=O (stereo not shown) [Compound 29]
145,1.02,610,colorless,3.85,COC12CC3CC(C1)C1(c4c(c5ccccc5n4-c4ccccc4)C(C4CC4)=C4C(=O)N(C(Cl)(Cl)Cl)C(=O)C41)C(C3)C2 (stereo not shown) [Compound 9]
270,0.56,604,colorless,2.06,CC1=C2C(=O)N(C#N)C(=O)C2C2(c3sccc31)C1CC3CC(C1)CC2C3 (stereo not shown) [Compound 28]
100,0.71,619,colorless,3.26,CC1=C2C(=O)N(S(=O)(=O)c3cc(Cl)cc(Cl)c3)C(=O)C2C2(c3c1c1c(n3-c3ccccc3)CCCC1)C1CCC2CC1 (stereo not shown) [Compound 25]
260,1.12,603,colorless,3.96,CC1=C2C(=O)N(C#N)C(=O)C2C2(c3oc(-c4ccccc4)cc31)C1CC3CC(C1)CC2C3 (stereo not shown) [Compound 5]
135,0.90,570,colorless,3.84,"O=C1C2=C(C3CC3)c3ccsc3C3(C4CC5CC(C4)CC3C5)C2C(=O)N1C(=O)c1ccccc1 (stereo not shown) [Compound 3, N-Benzoyl-4-cyclopropyl-6,7-dihydrospirobenzothiophenedicarboxyimide-7,2'-tricyclo[3.3.1.1^3,7]decane]"
265,0.65,580,colorless,2.00,CC1=C2C(=O)N(C#N)C(=O)C2C2(c3occc31)C1CC3CC(C1)CC2C3 (stereo not shown) [Compound 31]
210,0.73,590,colorless,2.21,COc1cc(OC)c2c(c1)C(C)=C1C(=O)N(C#N)C(=O)C1C21C2CC3CC(C2)CC1C3 (stereo not shown) [Compound 30]
115,0.95,540,colorless,2.95,O=C1C2=C(c3ccccc3)c3c(oc4ccccc34)C3(C4CCC3CC4)C2C(=O)N1C(Cl)(Cl)Cl (stereo not shown) [Compound 21]
120,0.54,546,colorless,3.84,COc1c(C)sc2c1C1(C3CC4CC(C3)CC1C4)C1C(=O)N(C(=O)Oc3ccccc3)C(=O)C1=C2C (stereo not shown) [Compound 26]
140,0.94,576,colorless,2.45,CCCC1=C2C(=O)N(C(Cl)(Cl)Cl)C(=O)C2C2(c3oc4c(c31)CCCC4)C1CCC2CC1 (stereo not shown) [Compound 24]
100,0.85,550,colorless,2.15,"CCC1=C2C(=O)N(C(=O)C(Cl)(Cl)Cl)C(=O)C2C2(c3sc4cc(OC)ccc4c31)C1CC3CC(Cl)(C1)CC2(Cl)C3 (stereo not shown) [Compound 7, 3',5'-Dichloro-3,4-dihydro-1-ethyl-7-methoxy-N-trichloromethylcarbonylspirodibenzo[5,6-b:d]thiophenedicarboxyimide-4,2'-tricyclo[3.3.1.1^3,7]decane]"
100,0.68,540,yellow,10.03,"CCN1C(=O)C2=C(C)c3ccsc3C3(C4CC5CC(C4)CC3C5)C2C1=O (stereo not shown) [A, reference compound]"
140,1.02,593,colorless,2.25,CC12CCCC(CCC1)C21c2sc([N+](=O)[O-])cc2C(C2CC2)=C2C(=O)N(C(=O)c3c(F)c(F)c(F)c(F)c3F)C(=O)C21 (stereo not shown) [Compound 12]
105,0.70,550,colorless,2.11,CC(=O)N1C(=O)C2=C(C)c3ccsc3C3(C4CC5CC(C4)CC3C5)C2C1=O (stereo not shown) [Compound 32]
95,0.75,550,yellow,10.65,"CC1=C2C(=O)N(CC#N)C(=O)C2C2(c3oc(-c4ccccc4)cc31)C1CC3CC(C1)CC2C3 (stereo not shown) [B, reference compound]"
90,0.90,580,yellow,18.21,"COc1ccc(-c2cc3c(s2)C2(C4CC5CC(C4)CC2C5)C2C(=O)N(CC#N)C(=O)C2=C3C)cc1 (stereo not shown) [E, reference compound]"
140,0.87,600,colorless,2.36,CC(=O)N1C(=O)C2=C(C3CC3)c3c(sc4c3CCCC4)C3(C4CCC3CC4)C2C1=O (stereo not shown) [Compound 23]
110,0.98,541,colorless,3.94,"COc1ccc(C2=C3C(=O)N(C(=O)c4ccccc4)C(=O)C3C3(c4oc5ccccc5c42)C2CC4CC3CC(C)(C4)C2)cc1 (stereo not shown) [Compound 8, N-Benzoyl-3,4-dihydro-5'-methyl-1-(p-methoxyphenyl)spirobenzo[5,6-b:d]furandicarboxyimide-4,2-tricyclo[3.3.1.1^3,7]decane]"
95,0.77,560,yellow,17.56,"COc1ccc(-c2cc3c(o2)C2(C4CC5CC(C4)CC2C5)C2C(=O)N(CC#N)C(=O)C2=C3C)cc1 (stereo not shown) [C, reference compound]"
140,1.10,610,colorless,3.10,CCCCC12CCC(CC1)C21c2sc(C)c(CC)c2C(C2CC2)=C2C(=O)N(C(=O)c3cccc(C(F)(F)F)c3)C(=O)C21 (stereo not shown) [Compound 17]
110,0.81,603,colorless,3.05,CSc1cc2c(n1C)C1(C3C(=O)N(C(F)(F)F)C(=O)C3=C2C(C)C)C2(C)CCC1(C)CC2 (stereo not shown) [Compound 19]
100,0.88,630,colorless,2.35,CC1=C2C(=O)N(C(=O)c3cccc(C#N)c3)C(=O)C2C2(c3c1c1c(n3C)CCCC1)C1CC3CC(F)(C1)CC2(F)C3 (stereo not shown) [Compound 11]
80,0.75,600,yellow,19.23,"CCN1C(=O)C2=C(C)c3cc(-c4ccc(OC)cc4)n(-c4ccccc4)c3C3(C4CC5CC(C4)CC3C5)C2C1=O (stereo not shown) [F, reference compound]"
100,1.05,625,colorless,3.56,CC(=O)N1C(=O)C2=C(C)c3c4c(n(-c5ccccc5)c3C3(C5CCCC3CCC5)C2C1=O)CCCC4 (stereo not shown) [Compound 16]

# Source: patent publication US5631382A, “Fulgimide compound” (Tokuyama Corporation, priority 1994, dated 1997)
